Here are results for two compounds from patent US20260297027A1, “Non-Peptide Small Molecule FGF14:Nav1.6 Channel Complex Protein-Protein Interaction Modulators” (The Board of Regents of The University of Texas System, priority 2023, published 2026).

“Also recorded” adds a separate entry of the source.

Assay [1] has as its target T1, Nav1.6 (Homo sapiens, UniProt Q9UQD0).
T1 construct: SPR against FGF14 and Nav1.6-C-terminal tail purified proteins
As to the kind of experiment: Surface plasmon resonance (SPR), Nav1.6-C-terminal tail. The assay is classed as binding. The following applies: Langmuir 1:1 interaction model (KD=koff/kon). The protocol: (§1) Secondary bioactivity assays: Surface plasmon resonance (SPR). Analogues were then tested using SPR against FGF14 and Nav1.6-C-terminal tail purified proteins, the gold standard for protein binding studies. SPR experiments were used to quantitatively assess the binding affinity of analogues, serving as both a secondary bioactivity assay to determine accurate binding affinities for protein:ligand interactions via KD, Kon and Koff, as well as to assess the compound's ability to disrupt PPI. The reliability of the model, goodness of fit, and reported kinetic and binding constants were validated by varying flow rates, immobilization densities, or different chips. Statistical analysis was conducted by visually inspecting the goodness of fit of the data from the residuals. Additionally, c2 was used as a global measure for residual noise; standard deviation was used to report errors in measurements by repeating the experiment at least three times.
FIGS. 2A and 2B summarize selectivity and orthogonal validation of hits from the screening assay. […] Compounds that modulated complex assembly by ≥25% were excluded from further studies. Referring to FIG. 2B, the remaining 5 selective hits were then quantitatively assessed using SPR. […]
Referring to FIG. 2B, the remaining 5 selective hits were then quantitatively assessed using SPR. […]
For orientation: In SPR one partner is held on a chip, and binding of the other changes the refractive index at the surface.

Assay [2] has as its target T2, FGF14 (Homo sapiens, UniProt Q92915).
T2 sequence (Q92915 1-252 isoform Q92915-2): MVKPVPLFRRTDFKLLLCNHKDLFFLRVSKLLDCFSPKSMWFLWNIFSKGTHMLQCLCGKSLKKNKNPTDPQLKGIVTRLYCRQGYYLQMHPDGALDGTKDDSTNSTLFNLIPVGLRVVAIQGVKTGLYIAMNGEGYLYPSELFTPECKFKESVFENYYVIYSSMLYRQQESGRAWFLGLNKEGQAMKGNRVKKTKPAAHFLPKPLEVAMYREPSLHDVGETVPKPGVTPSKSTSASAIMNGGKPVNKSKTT
The experiment in a line: Surface plasmon resonance (SPR), FGF14. The assay is classed as binding. The protocol: as §1
FIGS. 2A and 2B summarize selectivity and orthogonal validation of hits from the screening assay. […] Compounds that modulated complex assembly by ≥25% were excluded from further studies. Referring to FIG. 2B, the remaining 5 selective hits were then quantitatively assessed using SPR. Binding sensorgrams are shown for FGF14 (left) and Nav1.6 (middle) and normalized steady-state saturation plots (right) reveal differences in compound:protein binding affinities. Kinetic analysis of each ligand/analyte interaction was obtained by fitting the response data to the simplest Langmuir 1:1 interaction model (KD=koff/kon).
Referring to FIG. 2B, the remaining 5 selective hits were then quantitatively assessed using SPR. Binding sensorgrams are shown for FGF14 (left) and Nav1.6 (middle) and normalized steady-state saturation plots (right) reveal differences in compound:protein binding affinities. Kinetic analysis of each ligand/analyte interaction was obtained by fitting the response data to the simplest Langmuir 1:1 interaction model (KD=koff/kon).

The subject of assay [3] is Nav1.6 (cells stably expressing Nav1.6 and FGF14-GFP). As to the kind of experiment: Patch-clamp electrophysiology in heterologous cells expressing Nav1.6 and FGF14. The following applies: 1 μM. The format is cell-based. As to the method: (§2) Confirmatory assays: Automated and manual patch-clamp electrophysiology in heterologous cells. Patch-clamp electrophysiology is a rigorous, sophisticated confirmatory and orthogonal assay that serves to assess compound functional activity, mechanism of action, specificity, and selectivity toward various Nav isoforms. It is highly predictive of in vivo efficacy of compounds. In this assay, compounds are tested in cells stably expressing FGF14 and Nav1.6 or other relevant iFGF:Nav channel pairs. Initially screened with an automated planar patch-clamp system, compounds were tested with an 8-point dose-response in 384-well plates with a throughput of >2,000 data sets/week. Compounds were then confirmed with manual patch-clamp at targeted concentrations. A multitude of physiological parameters of Nav channels including Na+ current amplitude, kinetics, voltage-dependence, use-dependency, and time-dependency reflecting the channel closed, opened, and inactivated states were automatically measured using specialized software (i.e., CLAMPEX). Data were typically derived from n=10-20 recordings, N=3 batches of cells. Data were compared using either Student's t-test or two-way ANOVA mixed model.
(§3) Functional activity of Compound PW01028. To study compound PW01028 functional activity against Nav1.6-encoded currents were studied in heterologous cells stably expressing Nav1.6 and/or FGF14-GFP (FIGURE). […]

In assay [4] the target is T3, FGF14:Nav1.6 complex (Homo sapiens, UniProt Q92915+Q9UQD0).
T3 construct: split firefly luciferase complementation
T3 sequence (Q9UQD0 1763-1980 limits assumed, one chain of several): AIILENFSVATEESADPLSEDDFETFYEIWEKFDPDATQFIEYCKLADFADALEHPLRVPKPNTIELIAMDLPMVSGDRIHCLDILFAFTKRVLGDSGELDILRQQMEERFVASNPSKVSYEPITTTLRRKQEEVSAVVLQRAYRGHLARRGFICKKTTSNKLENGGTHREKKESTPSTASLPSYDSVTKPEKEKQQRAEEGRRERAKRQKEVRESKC
The experiment in a line: Split-luciferase complementation assay (LCA). The assay is classed as cell-based. An excerpt:
To identify small molecule probes targeting the FGF14:Nav1.6 PPI interface, the FGF14:Nav1.6 complex was reconstituted using the split-luciferase complementation assay (LCA), and a candidate pool of ~45,000 commercially available compounds was screened. An established screening pipeline was employed to validate hits. […] FIG. 1B summarizes exclusion of compounds based on the CellTiter Blue (CTB) cell viability fluorescence assay.
Primary assays: Split-luciferase complementation assay (LCA). The primary assay to detect FGF14:Nav1.6 complex formation in real-time in living cells is the split-luciferase complementation assay (LCA), which has been designed and successfully implemented specifically to study PPI between the Nav channel and iFGFs. With LCA, in-cell reconstitution of the FGF14:Nav1.6 channel complex was detected upon addition of the D-luciferin substrate, as a robust light signal representing the strength of interaction between the two binding partners. […] The high signal-to-noise ratio, favorable dynamic range, and reversibility of luminescence-based signals make LCA the ideal for HTS of potential regulators, as well as rapid dose-dependency studies (≥8 concentrations) to help guide subsequent in-depth hit validation using more labor-intensive approaches. […]

Assay [5] has as its target T4, Nav1.6 (HEK-Nav1.6 expressing GFP control) (Homo sapiens, UniProt Q9UQD0).
T4 construct: patch clamp
The experiment in a line: Patch-clamp electrophysiology in HEK-Nav1.6 cells expressing the GFP control construct. The assay is classed as cell-based. Conditions: HEK-Nav1.6 expressing the GFP control construct; in words. The protocol: as §2, §3
(In general: The patch-clamp technique gives a direct electrical read-out from membranes.)

Assay [6] concerns medium spiny neurons (MSN), Fgf14^−/−. As to the kind of experiment: Patch-clamp electrophysiology in brain slices, MSN of NAc from Fgf14-/- mice. The format is cell-based. The following applies: n=7-8/group, p>0.05, in words. The protocol:
(§4) Patch-clamp electrophysiology in brain slices. This assay provides a critical confirmatory step from the heterologous cell to the native system. With this assay, selected compounds were tested (typically, 3 concentrations) for their modulatory effects on MSN firing and Na+ currents using current clamp and voltage clamp recordings Parameters of interest included action potential threshold, amplitude, rise time, firing frequency, amplitude of Na+ currents and passive properties (i.e., Rseries, Rinput, Vm). Not only is this assay predictive of a compound's in vivo activity, it provides an assessment of potential toxicity and side effects based on secondary measurements (i.e., frequency, amplitude, and kinetics of synaptic potentials, Rinput, Vm). This assay was also used as the first target validation step in native tissue as compounds are concomitantly tested in neurons from Fgf14^−/− mice. Recordings were conducted from at least N=3 animals, n=10-15 recordings; effect is calculated using ANOVA mixed model.
(§5) Target validation of compound PW01028 in NAc slices.

Assay [7] concerns medium spiny neurons (MSN), Fgf14^+/+. The experiment in a line: Patch-clamp electrophysiology in brain slices, MSN of NAc from Fgf14+/+ mice. The format is cell-based. The following applies: 1 micromolar, in words. As to the method:
as §4, §5

T4 sequence (Q9UQD0 whole entry): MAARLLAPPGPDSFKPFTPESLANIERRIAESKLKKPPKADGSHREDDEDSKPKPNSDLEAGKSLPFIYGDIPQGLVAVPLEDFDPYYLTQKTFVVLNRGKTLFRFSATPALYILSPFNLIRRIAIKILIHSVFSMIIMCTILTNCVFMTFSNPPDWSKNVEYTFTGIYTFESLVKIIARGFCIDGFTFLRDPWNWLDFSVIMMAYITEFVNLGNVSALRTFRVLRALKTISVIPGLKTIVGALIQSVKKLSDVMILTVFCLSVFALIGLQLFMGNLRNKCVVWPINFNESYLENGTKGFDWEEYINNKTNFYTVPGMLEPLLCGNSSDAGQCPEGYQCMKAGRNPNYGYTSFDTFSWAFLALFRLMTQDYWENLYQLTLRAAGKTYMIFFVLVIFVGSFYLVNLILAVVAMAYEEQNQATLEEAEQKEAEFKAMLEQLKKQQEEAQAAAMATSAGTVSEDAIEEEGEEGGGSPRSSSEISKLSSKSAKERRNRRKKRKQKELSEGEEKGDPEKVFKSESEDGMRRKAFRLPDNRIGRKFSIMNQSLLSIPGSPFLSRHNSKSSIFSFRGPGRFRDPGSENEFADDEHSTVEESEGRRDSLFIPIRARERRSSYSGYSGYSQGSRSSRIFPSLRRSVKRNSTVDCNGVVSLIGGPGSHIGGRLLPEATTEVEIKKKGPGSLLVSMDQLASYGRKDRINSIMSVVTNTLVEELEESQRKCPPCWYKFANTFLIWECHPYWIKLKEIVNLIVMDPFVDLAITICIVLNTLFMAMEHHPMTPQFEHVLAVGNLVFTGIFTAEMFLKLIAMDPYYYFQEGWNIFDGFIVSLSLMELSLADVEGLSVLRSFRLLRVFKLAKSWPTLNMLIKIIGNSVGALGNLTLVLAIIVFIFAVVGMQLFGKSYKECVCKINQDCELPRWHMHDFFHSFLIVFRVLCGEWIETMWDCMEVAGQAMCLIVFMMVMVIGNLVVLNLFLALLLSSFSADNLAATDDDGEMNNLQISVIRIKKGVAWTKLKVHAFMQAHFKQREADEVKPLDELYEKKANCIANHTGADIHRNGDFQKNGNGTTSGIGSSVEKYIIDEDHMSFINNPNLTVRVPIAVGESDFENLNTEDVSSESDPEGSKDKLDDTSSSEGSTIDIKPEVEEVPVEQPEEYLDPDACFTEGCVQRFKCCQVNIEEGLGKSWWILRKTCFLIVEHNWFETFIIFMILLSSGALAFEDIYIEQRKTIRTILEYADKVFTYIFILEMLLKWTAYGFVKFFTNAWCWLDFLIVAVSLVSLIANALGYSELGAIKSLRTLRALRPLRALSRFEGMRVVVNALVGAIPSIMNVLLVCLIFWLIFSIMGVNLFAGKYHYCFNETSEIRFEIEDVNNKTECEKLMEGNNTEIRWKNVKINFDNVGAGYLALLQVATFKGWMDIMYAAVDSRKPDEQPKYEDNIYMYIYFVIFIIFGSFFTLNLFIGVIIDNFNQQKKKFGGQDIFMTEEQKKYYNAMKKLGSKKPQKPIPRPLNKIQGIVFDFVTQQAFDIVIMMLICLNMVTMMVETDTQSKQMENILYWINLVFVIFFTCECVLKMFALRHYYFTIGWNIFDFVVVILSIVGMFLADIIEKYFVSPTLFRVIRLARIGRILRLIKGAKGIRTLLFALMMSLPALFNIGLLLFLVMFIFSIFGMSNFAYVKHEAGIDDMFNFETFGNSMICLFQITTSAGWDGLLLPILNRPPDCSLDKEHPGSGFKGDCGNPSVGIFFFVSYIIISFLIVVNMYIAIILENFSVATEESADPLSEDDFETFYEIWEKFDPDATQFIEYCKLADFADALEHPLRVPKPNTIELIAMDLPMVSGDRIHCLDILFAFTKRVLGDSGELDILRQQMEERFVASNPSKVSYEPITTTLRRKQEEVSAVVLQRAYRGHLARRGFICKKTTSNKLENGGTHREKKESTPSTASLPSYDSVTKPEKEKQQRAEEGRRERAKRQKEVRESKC
T1 sequence (Q9UQD0 1767-1912 limits assumed): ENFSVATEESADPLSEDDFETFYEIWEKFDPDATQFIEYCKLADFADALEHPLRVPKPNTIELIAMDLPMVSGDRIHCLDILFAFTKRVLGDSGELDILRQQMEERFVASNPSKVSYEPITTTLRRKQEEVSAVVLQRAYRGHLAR

Regarding `Cc1cccc(NC(=O)Cn2cc(CO)c3ccccc32)c1` [Compound 7605086, 2-(3-(Hydroxymethyl)-1H-indol-1-yl)-N-(m-tolyl)acetamide], the Kd was 13.6 µM in assay [1] and 2900 nM in assay [2] (Langmuir 1:1 interaction model (KD=koff/kon)).

In the case of `CCOC(=O)c1cccc(NC(=O)Cn2cc(CO)c3ccccc32)c1` [PW01028, Ethyl 3-(2-(3-(hydroxymethyl)-1H-indol-1-yl)acetamido)benzoate], the “depolarizing shift in the voltage-dependence of steady-state inactivation of the transient Na+ current” value in assay [3] (FGF14-mediated regulatory effects on Nav1.6) is on record as “+15 mV”. Moreover, in assay [3] (in words, n=6-10 cells/group), the “effect on voltage-dependence (V1/2) of steady-state inactivation” value was “markedly shifted V1/2 and steady-state inactivation to a more depolarized potential; also recorded: shifts voltage-dependence of steady-state inactivation of Na+ currents”. Also, the IC50 in assay [4] (LCA, read-out: IC50 for modulation of FGF14:Nav1.6 complex formation) was roughly 250 nM. For the same compound, in assay [4] (dose-response, in words), the “potency in the LCA dose-response studies” value is reported as “nanomolar potency”. Further, the functional effects entry in assay [5] was “no functional effects”. Besides, in assay [6], the “effect on MSN firing / Na+ currents” value is “inactive in MSN from Fgf14^−/− mice; also recorded: Lack of effect; also recorded: absent in Fgf14^−/− mice”. In assay [2] (in words), the “binding affinity to FGF14” value is recorded as “nanomolar binding affinity” and the “ligand binding to the FGF14 R117 residue” value is “evidence for ligand binding to the FGF14^R117 residue”. Further, the “effect on Nav channel closure / Na+ currents in MSN” value in assay [7] (Fgf14+/+ (wild-type) mice) was “potentiated MSN firing and transient Na^+ currents (INaP); also recorded: hampered Nav channel closure, prolonged Na+ currents”. For the same compound, the “effect on MSN firing” value in assay [7] (Fgf14+/+ mice, n=19-20/group, p<0.0001) is recorded as “potentiated MSN firing; also recorded: increases firing in MSN; also recorded: potentiated intrinsic firing”.

Broadly, the Kd is the equilibrium constant for the complex coming apart. A high value points to lower affinity. For orientation: IC50 means the concentration that gives 50% inhibition.
